Measurements from patent US20240315994A1, “SMALL MOLECULE MODULATORS OF FERROPTOSIS” (ARPEGGIO BIOSCIENCES, INC., priority 2021, published 2024).

What was measured:
[1] = test system: HT-1080 fibrosarcoma cells; assay: HT-1080 viability dose response in presence or absence of ferrostatin-1 or liproxstatin-1; format: cell-based; settings: HT-1080 cells, 100 μM to 100 nM, 48 hours, with/without 1.5 μM ferrostatin-1
Procedure: To determine whether the reduction in cell viability by the compounds identified in FIG. 1 is driven by induction of ferroptosis, we performed dose response curves for each compound in the presence or absence of ferrostatin-1 or liproxstatin-1, which prevent ferroptosis by functioning as radical trapping antioxidants at cellular membranes. Briefly, HT-1080 fibrosarcoma cells were plated 24 hours prior to treatment with a range of concentrations of each inhibitor compound ranging from 100 μM to 100 nM in the presence or absence of 1 μM liproxstatin-1 or 1.5 µM ferrostatin-1. Cell Titer Glo® was used to read out cell viability after 48 hours compound exposure. Data was collected in triplicate.
Compounds from the Enamine covalent inhibitor library with similar structures to compounds 8216, 6666 or 1816 were further screened for inducing cell death via ferroptosis. Briefly, HT-1080 fibrosarcoma cells were plated on black-sided clear bottom plates 24 hours prior to treatment, with or without the addition of 2× ferrostatin-1, which inhibits the process of ferroptosis and rescues cells from undergoing this form of cell death. Compounds were diluted in DMSO and media then added to the cells for a total of 24 hours at which point cell viability was read out via Cell Titer Glo. Compounds were tested at […] ranging from 50 μM to 5 nM at half log dilutions.
FIG. 14 is a panel of plots 1400 showing relative viability of HT-1080 fibrosarcoma cells exposed to 15 inhibitor compounds with similar structures to 8216, 6666, or 1816 tested over a range of concentrations from 50 μM to 5 nM at half log dilutions in the presence of (red line) and absence of (black line) 1.5 μM ferrostatin-1. Ferrostatin-1 is a lipophilic antioxidant which inhibits the process of ferroptosis and rescues cells from undergoing this form of cell death. The black line is the relative HT-1080 fibrosarcoma cell viability in the absence of ferrostatin-1 and the red line is the relative HT-1080 fibrosarcoma cell viability in the presence of 1.5 μM ferrostatin-1. HT-1080 fibrosarcoma cells were plated on side-blackened, clear bottom plates 24 hours prior to treatment, with or without the addition of 2× ferrostatin-1. Each compound was diluted in DMSO and media and then added to the cells for a total of 24 hours, at which point cell viability was read out via Cell Titer Glo.

recombinant GPX4 protein = target: T1, recombinant GPX4 protein (Homo sapiens, UniProt P36969); assay: GPX4 inhibitor screening assay (Cayman Chemical cat #701880); format: biochemical; settings: for GPX4 inhibitory capacity in vitro: 25 μM, one hour incubation with recombinant GPX4; for EC50: stated with the FIG. 6/FIG. 7 binding and GPX4 enzymatic results, assay behind the EC50 not named, read-out: EC50 (half maximal effective concentration)
T1 construct: purchased Cayman Chemical SO960203
T1 sequence (P36969 1-197): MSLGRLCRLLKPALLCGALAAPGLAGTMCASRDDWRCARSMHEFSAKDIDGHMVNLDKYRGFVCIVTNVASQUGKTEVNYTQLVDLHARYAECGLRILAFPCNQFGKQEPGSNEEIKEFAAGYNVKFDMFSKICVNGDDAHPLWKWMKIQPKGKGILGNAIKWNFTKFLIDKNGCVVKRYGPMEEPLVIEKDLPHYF
Procedure: To determine whether the five ferroptosis-inducing compounds (1816, 8216, 3362, 1962, and 0973) inhibit GPX4 enzymatic activity in vitro, we used a commercially available GPX4 inhibitor screening kit (Cayman Chemical cat #701880). This assay measures a compound's ability to prevent cumene hydroperoxide reduction by recombinant GPX4 protein. Briefly, the five ferroptosis-inducing compounds (25 μM) were incubated with recombinant GPX4 protein for one hour before being run in the Cayman Chemicals GPX4 inhibitor screening assay according to manufacturer's recommendations. The assay read out is a change in absorbance between NADPH and NADP. ML162 (25 μM) and RSL3 (25 μM) were used as positive control compounds.
An enzymatic assay that measures the reduction of […] by GPX4 was used to test the ability of compounds 8216, 6666, 8147, and 3793 to inhibit the activity of GPX4. The enzymatic assay was performed using a commercially available kit (Cayman cat #701880). The compounds were tested at 8 concentrations in duplicate with the compound being diluted following manufacturer's instructions. The enzymatic reaction was allowed to continue for 1 hour prior to reading out the kinetic shift in absorbance that occurs as result of GPX4 […].

[2] = test system: HK-2 kidney epithelial cells; assay: HK-2 kidney epithelial cell viability dose response (Cell Titer Glo); format: cell-based; settings: healthy HK-2 vs cancer HT-1080 cells
Procedure: To test whether the ferroptosis-inducing compounds 8216 or 1962 display selectivity for cancer cells we performed a dose response study in HK-2 kidney epithelial cells. HK-2 kidney epithelial cells are a non-cancerous cell line that is commonly used as a “healthy” control in ferroptosis experiments. Briefly, HK-2 kidney epithelial cells were plated 24 hours prior to treatment with concentrations of the ferroptosis-inducing compounds 8216 or 1962 ranging from 10 µM to 10 nM. The ferroptosis-inducing compound RSL3 was used as a positive control. As an additional control, we included a non-specific inducer of apoptosis, staurosporine. Cell Titer Glo® was used to read out cell viability after 48 hours of compound exposure. Data was collected in triplicate.
To determine whether the reduction in viability of HK-2 renal epithelial cells exposed to compounds 8216 or 1962 is driven by induction of ferroptosis, we performed dose response curves for each compound in the presence or absence of ferrostatin-1. We also compared the EC50s for each compound between healthy cells (HK-2 renal epithelial cells) and cancer cells (HT-1080 fibrosarcoma cells) to determine a therapeutic window for healthy vs diseased cells. […] Cell Titer Glo® was used to read out cell viability after 48 hours of compound exposure. […]

[3] = test system: HT-1080 fibrosarcoma cells; assay: Bodipy C-11 lipid peroxidation imaging in HT-1080 cells; format: cell-based; settings: 10 μM, 1 hour, with or without 1.5 μM ferrostatin-1, ferrostatin-1 rescued
Procedure: Compounds 6666, 6047, […], 8216, and 8147 were also evaluated for inducing lipid peroxidation in HT-1080 fibrosarcoma cells in the presence or absence of 1.5 µM ferrostatin-1. Briefly, HT-1080 fibrosarcoma cells were treated with 10 µM of compound with or without 1.5 μM ferrostatin-1 and incubated at 37° C. for 1 hour. Bodipy C-11 and Hoescht stain were then added to the media, the cells were allowed to incubate for an additional 30 minutes and then were imaged on the Opera Phenix confocal screening system.

| SMILES | cell death and rescue by ferrostatin-1 [1] | GPX4 inhibitory capacity in vitro (recombinant GPX4 protein) | EC50 (recombinant GPX4 protein) [µM] | therapeutic window (HK-2 vs HT-1080 EC50 difference) [2] | lipid peroxidation (Bodipy C-11 emission shift) [3] |
| --- | --- | --- | --- | --- | --- |
| O=C(CCl)N1c2ccccc2OC[C@@H]1c1ccccc1 [Compound 1962] | cell death that was rescued by the addition of the antioxidant ferrostatin-1 | exhibit potent GPX4 inhibitory capacity | ~0.44 | – | – |
| CCOc1ccc(C[C@@H]2c3cc(OCC)c(OCC)cc3CCN2C(=O)CCl)cc1OCC [Compound 3362] | cell death that was rescued by the addition of the antioxidant ferrostatin-1 | do not inhibit GPX4 enzymatic activity in vitro | – | – | – |
| CCCCCN(C(=O)CCl)c1c(N)n(CCCC)c(=O)[nH]c1=O [Compound 1816] | cell death that was rescued by the addition of the antioxidant ferrostatin-1 | do not inhibit GPX4 enzymatic activity in vitro | – | – | – |
| O=C(CCl)N(Cc1ccc(F)cc1)C1CCCCC1 [Compound 8216] | cell death that was rescued by the addition of the antioxidant ferrostatin-1 | exhibit potent GPX4 inhibitory capacity | ~0.1 | comparable to that of RSL3 | shift in emission reflective of lipid peroxidation |
